Results published in publication PMC10177510, “A Multicenter, Open-Label, Phase I/II Study of FN-1501 in Patients with Advanced Solid Tumors” (Cancers, 2023).

Assay: Phase I/II dose escalation: safety and tolerability (DLT, TEAE)
Type: in vivo
Experimental: This Phase 1/2, FIH, open-label, multi-center, single-arm, dose-escalation study was conducted in pts with histologically or cytologically confirmed advanced solid tumors or R/R AML.
In the absence of worrisome toxicity, the remaining pts could be enrolled and dosed in that cohort. Safety evaluations were performed by investigators, the medical monitor, and the Sponsor. A Safety Monitoring Committee determined dose levels to be administered during dose escalation based on data available from the current and previous dose levels.

In the case of `CN1CCN(Cc2ccc(NC(=O)c3[nH]ncc3Nc3ncnc4[nH]ccc34)cc2)CC1` [FN-1501], the “Dose-Limiting Toxicity” value (2.5 mg/day, 4 patients) is reported as 0, the “Abdominal pain, patients with event” value (2.5 mg/day, N = 4) is reported as 1 and the “Back pain, patients with event” value (2.5 mg/day, N = 4) is reported as 1. For the same compound, the “Constipation, patients with event” value (2.5 mg/day, N = 4) was 0, the “Decreased appetite, patients with event” value (2.5 mg/day, N = 4) was 1 and the “Diarrhea, patients with event” value (2.5 mg/day, N = 4) was 0. The “Dizziness, patients with event” value (2.5 mg/day, N = 4) was 0, the “Dyspnea, patients with event” value (2.5 mg/day, N = 4) was 1 and the “Fatigue, Grade ≥ 3 TEAE, n (%)” value (2.5 mg/day, N = 4) was 1 (25). The “Fatigue, patients with event” value (2.5 mg/day, N = 4) was 1, the “Infusion-related reaction, patients with event” value (“Infusion-related reaction” for short) (2.5 mg/day, N = 4) was 0 and the “Nausea, patients with event” value (2.5 mg/day, N = 4) was 1. For the same compound, the “Oedema peripheral, patients with event” value (2.5 mg/day, N = 4) was 1, the “Pyrexia, patients with event” value (2.5 mg/day, N = 4) was 0 and the “Total number of TEAEs” value (2.5 mg/day, N = 4) was 20. For the same compound, the “Total patients with at least 1 TEAE” value (2.5 mg/day, N = 4) was 4, the “Vomiting, patients with event” value (2.5 mg/day, N = 4) was 1 and the “Dose-Limiting Toxicity” value (5 mg/day, 3 patients) was 0. For the same compound, the “Abdominal pain, patients with event” value (5 mg/day, N = 3) was 1, the “Back pain, patients with event” value (5 mg/day, N = 3) was 0 and the “Constipation, patients with event” value (5 mg/day, N = 3) was 1. The “Decreased appetite, patients with event” value (5 mg/day, N = 3) was 0, the “Diarrhea, patients with event” value (5 mg/day, N = 3) was 1 and the “Diarrhoea, Grade ≥ 3 TEAE, n (%)” value (5 mg/day, N = 3) was 1. For the same compound, the “Dizziness, patients with event” value (5 mg/day, N = 3) was 0, the “Dyspnea, patients with event” value (5 mg/day, N = 3) was 0 and the “Fatigue, patients with event” value (5 mg/day, N = 3) was 1. The “Infusion-related reaction” value (5 mg/day, N = 3) was 1, the “Nausea, patients with event” value (5 mg/day, N = 3) was 1 and the “Oedema peripheral, patients with event” value (5 mg/day, N = 3) was 1. For the same compound, the “Pyrexia, patients with event” value (5 mg/day, N = 3) was 1, the “Small intestinal obstruction, Grade ≥ 3 TEAE, n (%)” value (5 mg/day, N = 3) was 1 (33) and the “Total number of TEAEs” value (5 mg/day, N = 3) was 23. The “Total patients with at least 1 TEAE” value (5 mg/day, N = 3) was 3, the “Vomiting, patients with event” value (5 mg/day, N = 3) was 1 and the “Dose-Limiting Toxicity” value (10 mg/day, 5 patients) was 0. For the same compound, the “Abdominal pain, patients with event” value (10 mg/day, N = 5) was 0, the “Back pain, patients with event” value (10 mg/day, N = 5) was 0 and the “Bacterial sepsis, Grade ≥ 3 TEAE, n (%)” value (10 mg/day, N = 5) was 1. For the same compound, the “Constipation, patients with event” value (10 mg/day, N = 5) was 1, the “Decreased appetite, patients with event” value (10 mg/day, N = 5) was 0 and the “Delirium, Grade ≥ 3 TEAE, n (%)” value (10 mg/day, N = 5) was 1. For the same compound, the “Diarrhea, patients with event” value (10 mg/day, N = 5) was 0, the “Dizziness, patients with event” value (10 mg/day, N = 5) was 0 and the “Dyspnea, patients with event” value (10 mg/day, N = 5) was 1. The “Fatigue, patients with event” value (10 mg/day, N = 5) was 2, the “Infusion-related reaction” value (10 mg/day, N = 5) was 0 and the “Lung infection, Grade ≥ 3 TEAE, n (%)” value (10 mg/day, N = 5) was 1. For the same compound, the “Nausea, patients with event” value (10 mg/day, N = 5) was 1, the “Oedema peripheral, patients with event” value (10 mg/day, N = 5) was 0 and the “Pyrexia, patients with event” value (10 mg/day, N = 5) was 0. The “Stomatitis, Grade ≥ 3 TEAE, n (%)” value (10 mg/day, N = 5) was 1, the “Total number of TEAEs” value (10 mg/day, N = 5) was 25 and the “Total patients with at least 1 TEAE” value (10 mg/day, N = 5) was 4. For the same compound, the “Vomiting, patients with event” value (10 mg/day, N = 5) was 1, the “Dose-Limiting Toxicity” value (15 mg/day, 3 patients) was 0 and the “Abdominal pain, patients with event” value (15 mg/day, N = 3) was 1. The “Back pain, patients with event” value (15 mg/day, N = 3) was 1, the “Catheter site infection, Grade ≥ 3 TEAE, n (%)” value (15 mg/day, N = 3) was 1 and the “Constipation, patients with event” value (15 mg/day, N = 3) was 1. The “Decreased appetite, patients with event” value (15 mg/day, N = 3) was 0, the “Diarrhea, patients with event” value (15 mg/day, N = 3) was 2 and the “Dizziness, patients with event” value (15 mg/day, N = 3) was 2. For the same compound, the “Dyspnea, patients with event” value (15 mg/day, N = 3) was 0, the “Fatigue, patients with event” value (15 mg/day, N = 3) was 0 and the “Infusion-related reaction” value (15 mg/day, N = 3) was 1. The “Nausea, patients with event” value (15 mg/day, N = 3) was 2, the “Oedema peripheral, patients with event” value (15 mg/day, N = 3) was 0 and the “Pyrexia, patients with event” value (15 mg/day, N = 3) was 1. The “Total number of TEAEs” value (15 mg/day, N = 3) was 41, the “Total patients with at least 1 TEAE” value (15 mg/day, N = 3) was 3 and the “Vascular access complication, Grade ≥ 3 TEAE, n (%)” value (15 mg/day, N = 3) was 1. The “Vomiting, patients with event” value (15 mg/day, N = 3) was 0, the “Dose-Limiting Toxicity” value (22.5 mg/day, 4 patients) was 0 and the “Abdominal pain, Grade ≥ 3 TEAE, n (%)” value (22.5 mg/day, N = 4) was 1. The “Abdominal pain, patients with event” value (22.5 mg/day, N = 4) was 2, the “Back pain, patients with event” value (22.5 mg/day, N = 4) was 0 and the “Constipation, patients with event” value (22.5 mg/day, N = 4) was 1. For the same compound, the “Decreased appetite, patients with event” value (22.5 mg/day, N = 4) was 2, the “Diarrhea, patients with event” value (22.5 mg/day, N = 4) was 0 and the “Dizziness, patients with event” value (22.5 mg/day, N = 4) was 1. For the same compound, the “Dyspnea, patients with event” value (22.5 mg/day, N = 4) was 1, the “Fatigue, patients with event” value (22.5 mg/day, N = 4) was 2 and the “Infusion-related reaction” value (22.5 mg/day, N = 4) was 0. The “Nausea, patients with event” value (22.5 mg/day, N = 4) was 1, the “Oedema peripheral, patients with event” value (22.5 mg/day, N = 4) was 0 and the “Pyrexia, patients with event” value (22.5 mg/day, N = 4) was 1. The “Total number of TEAEs” value (22.5 mg/day, N = 4) was 26, the “Total patients with at least 1 TEAE” value (22.5 mg/day, N = 4) was 4 and the “Vomiting, patients with event” value (22.5 mg/day, N = 4) was 1. For the same compound, the “Dose-Limiting Toxicity” value (30 mg/day, 3 patients) was 0, the “Abdominal pain, patients with event” value (30 mg/day, N = 3) was 1 and the “Back pain, patients with event” value (30 mg/day, N = 3) was 0. The “Constipation, patients with event” value (30 mg/day, N = 3) was 0, the “Decreased appetite, patients with event” value (30 mg/day, N = 3) was 0 and the “Diarrhea, patients with event” value (30 mg/day, N = 3) was 1. The “Dizziness, patients with event” value (30 mg/day, N = 3) was 0, the “Dyspnea, patients with event” value (30 mg/day, N = 3) was 0 and the “Fatigue, patients with event” value (30 mg/day, N = 3) was 1. For the same compound, the “Hyponatraemia, Grade ≥ 3 TEAE, n (%)” value (30 mg/day, N = 3) was 1, the “Infusion-related reaction” value (30 mg/day, N = 3) was 0 and the “Nausea, patients with event” value (30 mg/day, N = 3) was 1. The “Oedema peripheral, patients with event” value (30 mg/day, N = 3) was 0, the “Pyrexia, patients with event” value (30 mg/day, N = 3) was 0 and the “Syncope, Grade ≥ 3 TEAE, n (%)” value (30 mg/day, N = 3) was 1 (33). For the same compound, the “Total number of TEAEs” value (30 mg/day, N = 3) was 16, the “Total patients with at least 1 TEAE” value (30 mg/day, N = 3) was 3 and the “Vomiting, patients with event” value (30 mg/day, N = 3) was 0. For the same compound, the “Dose-Limiting Toxicity” value (40 mg/day, 4 patients) was 0, the “Abdominal distension, Grade ≥ 3 TEAE, n (%)” value (40 mg/day, N = 4) was 1 (25) and the “Abdominal pain, patients with event” value (40 mg/day, N = 4) was 0. The “Back pain, patients with event” value (40 mg/day, N = 4) was 0, the “Blood alkaline phosphatase increased, Grade ≥ 3 TEAE, n (%)” value (40 mg/day, N = 4) was 1 (25) and the “Blood bilirubin increased, Grade ≥ 3 TEAE, n (%)” value (40 mg/day, N = 4) was 1 (25). The “Constipation, patients with event” value (40 mg/day, N = 4) was 0, the “Decreased appetite, patients with event” value (40 mg/day, N = 4) was 0 and the “Diarrhea, patients with event” value (40 mg/day, N = 4) was 1. The “Dizziness, patients with event” value (40 mg/day, N = 4) was 0, the “Dyspnea, patients with event” value (40 mg/day, N = 4) was 0 and the “Fatigue, patients with event” value (40 mg/day, N = 4) was 1. The “Hyponatraemia, Grade ≥ 3 TEAE, n (%)” value (40 mg/day, N = 4) was 1, the “Infusion-related reaction” value (40 mg/day, N = 4) was 0 and the “Nausea, patients with event” value (40 mg/day, N = 4) was 0. The “Oedema peripheral, patients with event” value (40 mg/day, N = 4) was 1, the “Peritonitis, Grade ≥ 3 TEAE, n (%)” value (40 mg/day, N = 4) was 1 (25) and the “Pyrexia, patients with event” value (40 mg/day, N = 4) was 1. The “Total number of TEAEs” value (40 mg/day, N = 4) was 21, the “Total patients with at least 1 TEAE” value (40 mg/day, N = 4) was 4 and the “Vomiting, patients with event” value (40 mg/day, N = 4) was 1. The “Dose-Limiting Toxicity” value (54 mg/day, 3 patients) was 0, the “Abdominal pain, patients with event” value (54 mg/day, N = 3) was 0 and the “Anaemia, Grade ≥ 3 TEAE, n (%)” value (54 mg/day, N = 3) was 1 (33). For the same compound, the “Back pain, patients with event” value (54 mg/day, N = 3) was 0, the “Constipation, patients with event” value (54 mg/day, N = 3) was 0 and the “Decreased appetite, patients with event” value (54 mg/day, N = 3) was 0. For the same compound, the “Diarrhea, patients with event” value (54 mg/day, N = 3) was 0, the “Dizziness, patients with event” value (54 mg/day, N = 3) was 0 and the “Dyspnea, patients with event” value (54 mg/day, N = 3) was 0. The “Fatigue, Grade ≥ 3 TEAE, n (%)” value (54 mg/day, N = 3) was 1 (33), the “Fatigue, patients with event” value (54 mg/day, N = 3) was 2 and the “Infusion-related reaction” value (54 mg/day, N = 3) was 1. For the same compound, the “Nausea, patients with event” value (54 mg/day, N = 3) was 0, the “Oedema peripheral, patients with event” value (54 mg/day, N = 3) was 0 and the “Pyrexia, patients with event” value (54 mg/day, N = 3) was 0. For the same compound, the “Total number of TEAEs” value (54 mg/day, N = 3) was 12, the “Total patients with at least 1 TEAE” value (54 mg/day, N = 3) was 3 and the “Vomiting, patients with event” value (54 mg/day, N = 3) was 0. The “Dose-Limiting Toxicity” value (72 mg/day, 3 patients) was 0, the “Abdominal pain, patients with event” value (72 mg/day, N = 3) was 1 and the “Back pain, patients with event” value (72 mg/day, N = 3) was 1. For the same compound, the “Constipation, patients with event” value (72 mg/day, N = 3) was 0 and the “Decreased appetite, patients with event” value (72 mg/day, N = 3) was 0.
